Measurements as given in patent publication US20220062240A1, “METHODS OF TREATING CANCER USING A CLK INHIBITOR” (BioSplice Therapeutics, Inc., priority 2018, published 2022).
Read-outs that look alike come from different tables or passages of the source. One block for each compound: values may come before it.

Legend:
CLK3 = CLK3 (Homo sapiens, UniProt P49761); assay: CLK3 kinase activity assay (Z-lyte, Ser/Thr 18 peptide)
[1] = system: Wnt-responsive Sp5-Luc reporter in SW480 colon carcinoma cells; assay: Wnt activity screening assay (Sp5-Luc reporter); type: cell-based; conditions: Homo sapiens
From the text: The screening assay for Wnt activity is described as follows. Reporter cell lines can be generated by stably transducing cancer cell lines (e.g., colon cancer) or primary cells (e.g., IEC-6 intestinal cells) with a lentiviral construct that includes a Wnt-responsive promoter driving expression of the firefly luciferase gene.
SW480 colon carcinoma cells were transduced with a lentiviral vector expressing luciferase with a human Sp5 promoter consisting of a sequence of eight TCF/LEF binding sites. […] These stably transduced SW480 cells were expanded in cell culture and used for all further screening activities. […] For Sp5-Luc reporter gene assays, the cells were plated at 4,000 cells/well in 384-well plates with a DMEM medium containing 1% fetal bovine serum, and 1% Penicillin-Streptomycin and incubated for 36 to 48 hours at 37° C. and 5% CO2. Following incubation, 15 μL of BriteLite Plus luminescence reagent (Perkin Elmer) was added to each well of the 384-well assay plates. The plates were placed on an orbital shaker for 2 min and then luminescence was quantified using the Envision (Perkin Elmer) plate reader.

[2] = system: SW480 colorectal cancer cells; assay: Gene expression qRT-PCR in SW480 cells; type: cell-based; conditions: Homo sapiens
Method: SW480 colorectal cancer cells were plated at 1×10^4 cells per well into 96-well plates (Olympus). Compounds were diluted in cell culture media and added to the cells at a final concentration of 3 μM. Cells were treated with vehicle (DMSO) and compounds for 24 hours. N=3 biological replicates per conditions.
Following treatment, cells were lysed, and cDNA was generated using the Fastlane Cell cDNA Kit (Qiagen).
384-well PCR plates with pre-spotted primers for CLK1, CLK2, CLK3, DVL2, LRP5, SRSF1, SRSF3, SRSF4, SRSF5, TCF7, TCF7L2 were ordered from Bio-Rad. The generated cDNA, along with a SYBR Green qRT-PCR master mix (SsoAdvanced™ Universal SYBR® Green Supermix, Bio-Rad) was added to the PCR plates.
qRT-PCR was performed on the plates using a CFX384 Touch™ Real-Time PCR Detection System (Bio-Rad) with the manufacturer's recommended thermal cycling conditions.
Data from the qRT-PCR assay was normalized to the GAPDH and HPRT1 housekeeping genes and set gene expression fold change was set relative to vehicle-treated cells using the ΔΔCt analysis method.

CLK2 = target: T1, CLK2 (Homo sapiens, UniProt P49760); assay: CLK2 kinase activity assay (Z-lyte, Ser/Thr 6 peptide); type: biochemical
T1 construct: purchased Thermo Fisher (Life Technologies), Z'-LYTE Kinase Assay Kits
Method: All reactions were performed in duplicate.

[3] = SW480 Sp5-Luc reporter, 36 to 48 hours, read-out: EC50
[4] = SW480, 3 μM, 24 hours, relative to DMSO, read-out: gene expression fold change CLK1
[5] = SW480, 3 μM, 24 hours, relative to DMSO, read-out: gene expression fold change CLK2
[6] = SW480, 3 μM, 24 hours, relative to DMSO, read-out: gene expression fold change CLK3
[7] = SW480, 3 μM, 24 hours, relative to DMSO, read-out: gene expression fold change DVL2
[8] = SW480, 3 μM, 24 hours, relative to DMSO, read-out: gene expression fold change LRP5
[9] = SW480, 3 μM, 24 hours, relative to DMSO, read-out: gene expression fold change SRSF1
[10] = SW480, 3 μM, 24 hours, relative to DMSO, read-out: gene expression fold change SRSF3
[11] = SW480, 3 μM, 24 hours, relative to DMSO, read-out: gene expression fold change SRSF4
[12] = SW480, 3 μM, 24 hours, relative to DMSO, read-out: gene expression fold change SRSF5
[13] = SW480, 3 μM, 24 hours, relative to DMSO, read-out: gene expression fold change TCF7
[14] = SW480, 3 μM, 24 hours, relative to DMSO, read-out: gene expression fold change TCF7L2
[15] = recombinant CLK2 kinase, ATP 60 μM, read-out: EC50

T1 sequence (P49760 whole entry): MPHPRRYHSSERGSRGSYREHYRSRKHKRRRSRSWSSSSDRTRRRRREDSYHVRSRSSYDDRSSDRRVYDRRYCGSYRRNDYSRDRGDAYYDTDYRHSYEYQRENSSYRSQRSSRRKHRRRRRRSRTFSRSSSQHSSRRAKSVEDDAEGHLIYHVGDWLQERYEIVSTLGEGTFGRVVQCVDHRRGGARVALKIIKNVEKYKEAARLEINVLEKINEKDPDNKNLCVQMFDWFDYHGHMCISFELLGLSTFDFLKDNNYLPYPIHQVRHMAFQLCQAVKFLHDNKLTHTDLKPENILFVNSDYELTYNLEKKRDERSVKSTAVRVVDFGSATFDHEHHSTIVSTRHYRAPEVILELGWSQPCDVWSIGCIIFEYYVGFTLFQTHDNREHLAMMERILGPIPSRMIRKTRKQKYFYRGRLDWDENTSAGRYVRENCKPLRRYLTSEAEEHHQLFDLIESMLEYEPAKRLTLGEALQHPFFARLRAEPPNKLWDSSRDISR
Sequence of CLK3 (P49761 whole entry): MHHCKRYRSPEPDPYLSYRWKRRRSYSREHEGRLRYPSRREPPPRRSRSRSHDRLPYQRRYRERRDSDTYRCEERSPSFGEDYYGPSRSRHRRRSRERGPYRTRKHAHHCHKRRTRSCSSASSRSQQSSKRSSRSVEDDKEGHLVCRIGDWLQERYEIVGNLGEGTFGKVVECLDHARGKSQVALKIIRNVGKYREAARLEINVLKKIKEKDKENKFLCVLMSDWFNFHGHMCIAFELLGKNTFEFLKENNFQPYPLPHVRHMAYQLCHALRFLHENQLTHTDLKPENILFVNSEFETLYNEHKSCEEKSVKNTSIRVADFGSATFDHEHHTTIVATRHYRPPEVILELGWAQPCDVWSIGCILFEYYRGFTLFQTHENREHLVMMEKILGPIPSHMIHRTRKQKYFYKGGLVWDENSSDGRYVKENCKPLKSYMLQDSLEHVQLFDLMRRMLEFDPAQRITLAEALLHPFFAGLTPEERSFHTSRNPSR

Compound: CN1CCN(c2nccc3[nH]c(-c4n[nH]c5cc(F)c(-c6cnn(C)c6)cc45)nc23)CC1 [Compound 42]
EC50 [1, 3]: 86 nM

Compound: CN1CCN(c2ccc(C(=O)Nc3cc4cc(-c5nncs5)ccc4cn3)cn2)CC1 [Compound 18]
EC50 (CLK3): 54 nM
EC50 (CLK2; [15]): 2 nM

Compound: Cc1ccc([N+](=O)[O-])cc1S(=O)(=O)N(C)/N=C/c1cnc2ccc(Br)cn12 [Compound 26]
EC50 (CLK3): 15 nM
EC50 (CLK2): 1 nM
EC50 ([1]; SW480): 39 nM

Compound: CNc1nc(NCc2ncccn2)c2c(-c3ccc4ncccc4c3)c[nH]c2n1 [Compound 9]
EC50 ([1]; SW480): 92 nM
fold induction at 3 µM ([2]; SW480, 24 h, read-out: gene expression fold change CLK1): 0.16
fold induction at 3 µM ([2]; SW480, 24 h, read-out: gene expression fold change CLK2): 0.06
fold induction at 3 µM ([2]; SW480, 24 h, read-out: gene expression fold change CLK3): 0.51
fold induction at 3 µM ([2]; SW480, 24 h, read-out: gene expression fold change DVL2): 0.21
fold induction at 3 µM ([2]; SW480, 24 h, read-out: gene expression fold change LRP5): 0.18
fold induction at 3 µM ([2]; SW480, 24 h, read-out: gene expression fold change SRSF1): 1.91
fold induction at 3 µM ([2]; SW480, 24 h, read-out: gene expression fold change SRSF3): 0.62
fold induction at 3 µM ([2]; SW480, 24 h, read-out: gene expression fold change SRSF4): 0.62
fold induction at 3 µM ([2]; SW480, 24 h, read-out: gene expression fold change SRSF5): 0.56
fold induction at 3 µM ([2]; SW480, 24 h, read-out: gene expression fold change TCF7): 0.2
fold induction at 3 µM ([2]; SW480, 24 h, read-out: gene expression fold change TCF7L2): 0.29

Compound: CN1CCC(Oc2cc(NC(=O)c3n[nH]c4cc(F)c(-c5cnn(C)c5)cc34)ccn2)CC1 [Compound 35]
EC50 (CLK3): 20 nM
EC50 (CLK2; [15]): 1 nM

Compound: O=C(Nc1cc2cc(-c3cnn4c3CN(CCF)CC4)ccc2cn1)c1ccnc(OC2CNC2)c1 [Compound 79]
EC50 (CLK3): 44.3 nM
EC50 (CLK2): 4.4 nM

Compound: Cc1ncc(-c2ccc3[nH]nc(-c4nc5c(-c6cc(F)cc(NCCN(C)C)c6)ccnc5[nH]4)c3n2)n1C [Compound 8]
EC50 (CLK3): 22 nM
EC50 (CLK2; [15]): 1 nM
EC50 [1, 3]: 623 nM

Compound: CCC(=O)Nc1cncc(-c2ccc3[nH]nc(-c4nc5c(-c6cccnc6)cncc5[nH]4)c3c2)c1 [Compound 40]
EC50 (CLK3): 14 nM
EC50 (CLK2; [15]): 3 nM
EC50 [1, 3]: 13 nM

Compound: NC1CN(c2cncc(-c3cc4c(-c5nc6c(-c7cccc(F)c7)cccc6[nH]5)n[nH]c4cn3)n2)C1 [Compound 44]
EC50 (CLK3): 108 nM
EC50 (CLK2; [15]): 18 nM
EC50 [1, 3]: 79 nM

Compound: CN1CCN(Cc2ccc(NC(=O)c3n[nH]c4ccc(-c5cccnc5)cc34)cn2)CC1 [Compound 36]
EC50 [1, 3]: 37 nM

Compound: Cc1ncc(C(=O)Nc2cc3cc(-c4cnc(C)n4C)ccc3cn2)s1 [Compound 16]
EC50 (CLK2; [15]): 1 nM
EC50 [1, 3]: 165 nM
fold induction at 3 µM [2, 4]: 0.22
fold induction at 3 µM [2, 5]: 0.06
fold induction at 3 µM [2, 6]: 0.59
fold induction at 3 µM [2, 7]: 0.18
fold induction at 3 µM [2, 8]: 0.17
fold induction at 3 µM [2, 9]: 1.92
fold induction at 3 µM [2, 10]: 0.61
fold induction at 3 µM [2, 11]: 0.66
fold induction at 3 µM [2, 12]: 0.54
fold induction at 3 µM [2, 13]: 0.21
fold induction at 3 µM [2, 14]: 0.14

Compound: Cc1n[nH]c2ccc(-c3cncc(OC4CCNCC4(F)F)n3)cc12 (centres unmarked) [Compound 28]
EC50 (CLK3): 313 nM
EC50 (CLK2; [15]): 3 nM
EC50 [1, 3]: 369 nM

Compound: CC(C)Oc1ccc(C(=O)Nc2cc3cc(-c4cnc5n4CCNC5)ccc3cn2)cc1 [Compound 17]
EC50 (CLK3): 161 nM
EC50 (CLK2; [15]): 2 nM

Further lines, with some results ahead:

EC50 (CLK3): 9 nM
EC50 [1, 3]: 26 nM
Compound: CN1CCC(n2cc(C(=O)Nc3cc4cc(-c5cncc6[nH]ccc56)ccc4cn3)cn2)CC1 [Compound 23]
fold induction at 3 µM [2, 4]: 0.02
fold induction at 3 µM [2, 5]: 0.03
fold induction at 3 µM [2, 6]: 0.02
fold induction at 3 µM [2, 7]: 0.11
fold induction at 3 µM [2, 8]: 0.04
fold induction at 3 µM [2, 9]: 0.3
fold induction at 3 µM [2, 10]: 0.09
fold induction at 3 µM [2, 11]: 0.02
fold induction at 3 µM [2, 12]: 0.24
fold induction at 3 µM [2, 13]: 0.25
fold induction at 3 µM [2, 14]: 0.12

EC50 [1, 3]: 13 nM
Compound: NC(=O)c1ccc(NC(=O)c2n[nH]c3ccc(-c4cncc(CN5CCCCC5)c4)cc23)cn1 [Compound 30]

EC50 [1, 3]: 30 nM
Compound: Nc1ncc(NC(=O)c2n[nH]c3ccc(-c4cncc(CN5CCCCC5)c4)cc23)cn1 [Compound 33]

EC50 [1, 3]: 97 nM
Compound: COc1ccc(NC(=O)c2n[nH]c3ccc(-c4cncc(CO)c4)cc23)cn1 [Compound 37]

EC50 (CLK3): 10 nM
EC50 (CLK2; [15]): 4 nM
EC50 [1, 3]: 199 nM
Compound: CC(C)CC(=O)Nc1cncc(-c2ccc3[nH]nc(-c4nc5c(-c6cc(F)cc(OCCN(C)C)c6)cncc5[nH]4)c3c2)c1 [Compound 39]

EC50 (CLK3): 17 nM
EC50 [1, 3]: 65 nM
Compound: CN(C)CCN(C)c1ccc(NC(=O)c2n[nH]c3ccc(-c4cncc(CN5CCCCC5)c4)cc23)cn1 [Compound 6]
fold induction at 3 µM [2, 4]: 0.04
fold induction at 3 µM [2, 5]: 0.06
fold induction at 3 µM [2, 6]: 0.03
fold induction at 3 µM [2, 7]: 0.06
fold induction at 3 µM [2, 8]: 0.05
fold induction at 3 µM [2, 9]: 0.1
fold induction at 3 µM [2, 10]: 0.04
fold induction at 3 µM [2, 11]: 0.01
fold induction at 3 µM [2, 12]: 0.1
fold induction at 3 µM [2, 13]: 0.31
fold induction at 3 µM [2, 14]: 0.07

EC50 [1, 3]: 253 nM
Compound: Cc1n[nH]c2ccc(-c3cncc(OC[C@H](N)Cc4ccccc4)n3)cc12 [Compound 2]
fold induction at 3 µM [2, 4]: 0.01
fold induction at 3 µM [2, 5]: 0.05
fold induction at 3 µM [2, 6]: 0.02
fold induction at 3 µM [2, 7]: 0.05
fold induction at 3 µM [2, 8]: 0.07
fold induction at 3 µM [2, 9]: 0.13
fold induction at 3 µM [2, 10]: 0.05
fold induction at 3 µM [2, 11]: 0.02
fold induction at 3 µM [2, 12]: 0.14
fold induction at 3 µM [2, 13]: 0.32
fold induction at 3 µM [2, 14]: 0.13

EC50 (CLK3): 14 nM
EC50 (CLK2; [15]): 2 nM
Compound: Cc1nnc(-c2ccc3cnc(NC(=O)c4ccnc(SC5CCN(C)CC5)c4)cc3c2)s1 [Compound 19]

EC50 (CLK3): 62 nM
EC50 (CLK2; [15]): 5 nM
EC50 [1, 3]: 14 nM
Compound: Fc1cccc(-c2cncc3[nH]c(-c4n[nH]cc4/C=C/c4cccnc4)nc23)c1 [Compound 29]

EC50 (CLK3): 7 nM
EC50 (CLK2; [15]): 1 nM
EC50 [1, 3]: 13 nM
Compound: CN(C)Cc1cncc(-c2ccc3[nH]nc(-c4nc5c(-c6cccc(F)c6)cncc5[nH]4)c3c2)c1 [Compound 38]

EC50 (CLK2; [15]): 1 nM
EC50 [1, 3]: 151 nM
Compound: O=C(Nc1cc2cc(-c3cncc(NCC4(F)CNC4)n3)ccc2cn1)C1CC1 [Compound 21]
fold induction at 3 µM [2, 4]: 0.02
fold induction at 3 µM [2, 5]: 0.03
fold induction at 3 µM [2, 6]: 0.05
fold induction at 3 µM [2, 7]: 0.15
fold induction at 3 µM [2, 8]: 0.07
fold induction at 3 µM [2, 9]: 0.22
fold induction at 3 µM [2, 10]: 0.07
fold induction at 3 µM [2, 11]: 0.03
fold induction at 3 µM [2, 12]: 0.16
fold induction at 3 µM [2, 13]: 0.48
fold induction at 3 µM [2, 14]: 0.1

EC50 (CLK3): 30 nM
EC50 (CLK2; [15]): 1 nM
Compound: Cn1cncc1-c1ccc2cnc(NC(=O)c3ccc4c(c3)CNC4)cc2c1 [Compound 15]

EC50 [1, 3]: 356 nM
Compound: Cc1n[nH]c2ccc(-c3cncc(OC[C@@H](N)Cc4ccccc4)c3)cc12 [Compound 3]

EC50 (CLK3): 40 nM
EC50 (CLK2; [15]): 4 nM
EC50 [1, 3]: 133 nM
Compound: c1cncc(-c2ccc3[nH]nc(-c4nc5ccncc5[nH]4)c3c2)c1 [Compound 43]

EC50 [1, 3]: 4 nM
Compound: CN1CCN(c2ccc(NC(=O)c3n[nH]c4ccc(-c5cncc(CN6CCC(F)(F)C6)c5)cc34)cn2)CC1 [Compound 31]

EC50 (CLK3): 10 nM
EC50 (CLK2; [15]): 1 nM
Compound: Cn1ncc(-c2ccc3cnc(NC(=O)c4ccnc(N5CCOCC5)c4)cc3c2)c1CN1CCOCC1 [Compound 13]

EC50 [1, 3]: 176 nM
Compound: CN(C)C(=O)Nc1cncc(-c2ccc3[nH]nc(C(=O)Nc4cccnc4)c3c2)c1 [Compound 34]
